Test results: patent publication US7094869B2, “Low molecular weight peptidomimetic growth hormone secretagogues” (Genentech, Inc., priority 1994, dated 2006)
“Also recorded” adds a separate entry of the source. Read-outs that look alike come from different tables or passages of the source.

Experiments:
rat pituitary cells = rat pituitary cells (Rattus norvegicus, UniProt O08725)
How it was run: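 Primary rat anterior pituitary cells, cultured three days in DME low glucose/10% FBS, were washed, pre-incubated twice for 15 min, then challenged 15 min with test compounds (DMSO ≤0.1%) at 37 °C. Released GH was measured by two-site ELISA; EC50 came from 4-parameter fits, mean of three to four independent determinations.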

[1] = GHRP induced dose dependent weight gain in rats (sc minipump infusion, 14 days); type: in vivo, rat
Experimental: Rat GHRH (1-43) was dissolved in the same buffer at 25 g/l.
The next day these osmotic pumps were inserted into rats.
Serum chemistries were measured by standard automated procedures.

pituitary cells = test: Calcium flux experiment (Indo-1 AM loaded pituitary cells); type: cell-based, rat; details: 10 nM, 21 seconds after addition
[2] = high dose (inip) b b F K-NH2 100 μg/day, GHRH 600 μg/day, 14 d infusion

Chain of rat pituitary cells (O08725 whole entry): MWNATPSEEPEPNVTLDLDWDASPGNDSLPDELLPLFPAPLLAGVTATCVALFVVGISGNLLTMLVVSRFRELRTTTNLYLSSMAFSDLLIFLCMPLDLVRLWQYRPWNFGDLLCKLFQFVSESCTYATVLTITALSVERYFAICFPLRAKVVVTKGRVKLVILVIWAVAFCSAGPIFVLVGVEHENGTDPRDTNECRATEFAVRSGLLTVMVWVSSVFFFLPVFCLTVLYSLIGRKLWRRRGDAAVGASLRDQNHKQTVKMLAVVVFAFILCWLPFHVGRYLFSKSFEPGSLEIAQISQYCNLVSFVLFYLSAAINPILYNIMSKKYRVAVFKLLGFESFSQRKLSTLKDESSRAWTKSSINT

Q: Which “concentration at which GH release is significantly (P<0.05) increased” value (rat pituitary cells; 15 min exposure) does the source give for NCCCC[C@H](NC(=O)[C@H](Cc1ccccc1)NC(=O)[C@@H](Cc1ccc2ccccc2c1)NC(=O)[C@@H](Cc1ccc2ccccc2c1)NC(=O)C1CCNCC1)C(N)=O [(inip) b b F K amide, (inip)-DβNal-DβNal-Phe-Lys-amide] here?
A: 0.3 nM

Q: And the “concentration by which GH release reaches a plateau” value (rat pituitary cells; 15 min exposure)?
A: 1 nM

Q: What about the “fold more potent than GHRP-6” value (rat pituitary cells; ratio of pit cell EC50s) of the same compound?
A: over 30 fold

Q: And the EC50 (rat pituitary cells; read-out: EC50 of the representative GH dose response, single representative experiment, 15 min exposure)?
A: 0.16 nM

Q: And the EC50 (rat pituitary cells; read-out: mean EC50, mean ± SE of independent EC50s)?
A: 0.18 ± 0.04 nM

Q: What about the epiphyseal plate width ([1]; 14 d infusion) of the same compound?
A: no statistically significant increase

Q: And the “pituitary and kidney weight” value ([1]; 14 d infusion)?
A: not affected

Q: What about the “heart weight compared to excipient” value ([1]; high dose 100 μg/day, GHRH 600 μg/day) of the same compound?
A: tended to be increased

Q: And the liver weight ([1]; high dose (100 μg/day), 14 d infusion)?
A: 10.14 ± 0.29 g

Q: And the spleen weight [1, 2]?
A: 628 ± 26 mg

Q: What about the thymus weight [1, 2] of the same compound?
A: 584 ± 34 mg

Q: What about the liver weight ([1]; low dose (4 μg/day), 14 d infusion) of the same compound?
A: 9.40 ± 0.37 g

Q: And the liver weight ([1]; medium dose (20 μg/day), 14 d infusion)?
A: 9.70 ± 0.29 g

Q: What about the “body weight gain compared to excipient” value ([1]; sc minipump 14 days, (inip) b b F K-NH2 4, 20, 100 μg/d, GHRH 600 μg/d, 90 day old female rats) of the same compound?
A: dose-related weight gain; also recorded: significant body weight and organ weight gain

Q: And the “serum IGF-1 concentrations” value (either mode of delivery)?
A: not significantly affected

Q: What about the thymus weight (high dose infusion (100 μg/day)) of the same compound?
A: 0.25 ± 0.03 g

Q: What about the epiphyseal plate width (high dose injections) of the same compound?
A: 191±8 μm

Q: And the heart weight (high dose injections)?
A: 1.15 ± 0.10 g

Q: What about the thymus weight (high dose injections) of the same compound?
A: 0.33 ± 0.02 g

Q: What about the “eviscerated and skinned carcass weight” value (high dose injections (50 μg 2 times a day)) of the same compound?
A: 152.4 ± 2.5 g

Q: And the weight gain (in 14 days, FIG. 20)?
A: 36 ± 3 g

Q: And the “cartilage growth (epiphyseal plate width)” value (infusions)?
A: did not significantly increase cartilage growth

Q: What about the “skin weight compared to control” value (injections and low dose infusion) of the same compound?
A: heavier

Q: And the “soleus muscle, kidney and liver weight” value (injections or infusions, 14 days)?
A: unaffected

Q: And the epiphyseal plate width (low dose injections)?
A: 160±11 μm

Q: What about the “eviscerated and skinned carcass weight” value (low dose injections (10 μg 2 times a day)) of the same compound?
A: 152.8 ± 2.8 g

Q: What about the weight gain (twice daily injections of 10 μg, adult female rats) of the same compound?
A: 30 gram

Q: What about the “Ca++ flux” value (pituitary cells; listed as (inip)-bbFK-NH2) of the same compound?
A: increased Ca flux

Q: What about the “Ca++ flux” value (pituitary cells; listed as (inip)bbFK-NH2) of the same compound?
A: increased C^++ flux
